IC50 and EC50 data for 1 compound are collected here from patent publication US20100004284A1, “Novel Heterocyclic Compounds as Positive Allosteric Modulators of Metabotropic Glutamate Receptors” (ADDEX PHARMA SA, priority 2005, published 2010).

Each structure is given as a SMILES string.

For one assay, the target named is T1, mGluR5 (Rattus norvegicus, UniProt P31424).
T1 construct: positive allosteric modulators of mGluR5 receptors in native preparations; endogenous in cells; host or cells: primary cortical astrocytes from Sprague-Dawley rat embryos (E16-19)
T1 sequence (P31424 21-1203): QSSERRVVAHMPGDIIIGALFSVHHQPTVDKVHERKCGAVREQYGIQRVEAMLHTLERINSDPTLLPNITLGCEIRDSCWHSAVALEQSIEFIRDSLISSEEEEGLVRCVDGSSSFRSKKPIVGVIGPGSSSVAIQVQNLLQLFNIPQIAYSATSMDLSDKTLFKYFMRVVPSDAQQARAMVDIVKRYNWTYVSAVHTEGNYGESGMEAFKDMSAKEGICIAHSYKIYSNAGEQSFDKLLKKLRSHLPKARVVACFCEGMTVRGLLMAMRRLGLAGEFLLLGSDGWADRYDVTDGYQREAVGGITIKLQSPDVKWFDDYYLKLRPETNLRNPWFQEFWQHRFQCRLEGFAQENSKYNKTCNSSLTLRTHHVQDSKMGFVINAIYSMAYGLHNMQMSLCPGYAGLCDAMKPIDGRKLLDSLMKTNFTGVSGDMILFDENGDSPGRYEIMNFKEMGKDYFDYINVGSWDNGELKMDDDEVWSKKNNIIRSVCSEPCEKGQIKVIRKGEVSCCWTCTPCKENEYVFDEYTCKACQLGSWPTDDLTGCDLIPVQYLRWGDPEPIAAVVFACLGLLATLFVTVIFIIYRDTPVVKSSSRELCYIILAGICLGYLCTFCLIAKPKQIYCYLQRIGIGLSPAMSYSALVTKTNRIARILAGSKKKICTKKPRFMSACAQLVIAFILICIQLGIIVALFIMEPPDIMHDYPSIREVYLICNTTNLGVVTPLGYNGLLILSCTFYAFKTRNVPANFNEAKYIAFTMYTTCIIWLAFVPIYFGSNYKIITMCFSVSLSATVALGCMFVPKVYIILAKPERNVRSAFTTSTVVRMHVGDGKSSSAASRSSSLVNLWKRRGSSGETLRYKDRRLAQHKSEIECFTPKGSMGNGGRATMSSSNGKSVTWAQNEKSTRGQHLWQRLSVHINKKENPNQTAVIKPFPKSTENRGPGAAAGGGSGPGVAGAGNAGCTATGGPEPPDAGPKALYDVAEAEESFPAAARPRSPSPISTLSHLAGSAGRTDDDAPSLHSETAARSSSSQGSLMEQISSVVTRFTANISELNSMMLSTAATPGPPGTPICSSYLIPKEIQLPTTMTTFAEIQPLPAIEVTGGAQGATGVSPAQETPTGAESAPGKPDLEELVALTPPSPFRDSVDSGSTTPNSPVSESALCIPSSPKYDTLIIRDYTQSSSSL
The experiment in a line: mGluR5 binding assay ([3H]-MPEP radioligand binding, rat brain membranes). The following applies: 3 nM [3H]-MPEP, 1 h at 4° C., read-out: IC50, inhibition of [3H]-MPEP binding. The source says:
Activity of compounds of the invention was examined following a radioligand binding technique using whole rat brain and tritiated 2-methyl-6-(phenylethynyl)-pyridine ([^3H]-MPEP) as a ligand following similar methods than those described in Gasparini et al. (2002) Bioorg. Med. Chem. Lett. 12:407-409 and in Anderson et al. (2002) J. Pharmacol. Exp. Ther. 303 (3) 1044-1051.
Cortices were dissected out from brains of 200-300 g Sprague-Dawley rats (Charles River Laboratories, L'Arbresle, France). Tissues were homogenized in 10 volumes (vol/wt) of ice-cold 50 mM HEPES-NaOH (pH 7.4) using a Polytron disrupter (Kinematica AG, Luzern, Switzerland) and centrifuged for 30 min at 40,000 g. (4° C.). […] Protein concentration was determined by the Bradford method (Bio-Rad protein assay, Reinach, Switzerland) with bovine serum albumin as standard.
Membranes were thawed and resuspended in binding buffer containing 20 mM HEPES-NaOH, 3 mM MgCl2, 3 mM CaCl2, 100 mM NaCl, pH 7.4. […] Radioactivity was determined by liquid scintillation spectrometry using a 96-well plate reader (TopCount, Perkin-Elmer, Downers Grove, USA).
The inhibition curves were generated using the Prism GraphPad program (Graph Pad Software Inc, San Diego, USA). […] The mean of IC50 obtained from at least three independent experiments of selected molecules performed in duplicate were calculated.

A further assay deals with T2, rat mGluR5 (Rattus norvegicus, UniProt P31424).
T2 construct: expressed in transfected cells
T2 sequence (P31424 21-1171 isoform P31424-2 limits assumed): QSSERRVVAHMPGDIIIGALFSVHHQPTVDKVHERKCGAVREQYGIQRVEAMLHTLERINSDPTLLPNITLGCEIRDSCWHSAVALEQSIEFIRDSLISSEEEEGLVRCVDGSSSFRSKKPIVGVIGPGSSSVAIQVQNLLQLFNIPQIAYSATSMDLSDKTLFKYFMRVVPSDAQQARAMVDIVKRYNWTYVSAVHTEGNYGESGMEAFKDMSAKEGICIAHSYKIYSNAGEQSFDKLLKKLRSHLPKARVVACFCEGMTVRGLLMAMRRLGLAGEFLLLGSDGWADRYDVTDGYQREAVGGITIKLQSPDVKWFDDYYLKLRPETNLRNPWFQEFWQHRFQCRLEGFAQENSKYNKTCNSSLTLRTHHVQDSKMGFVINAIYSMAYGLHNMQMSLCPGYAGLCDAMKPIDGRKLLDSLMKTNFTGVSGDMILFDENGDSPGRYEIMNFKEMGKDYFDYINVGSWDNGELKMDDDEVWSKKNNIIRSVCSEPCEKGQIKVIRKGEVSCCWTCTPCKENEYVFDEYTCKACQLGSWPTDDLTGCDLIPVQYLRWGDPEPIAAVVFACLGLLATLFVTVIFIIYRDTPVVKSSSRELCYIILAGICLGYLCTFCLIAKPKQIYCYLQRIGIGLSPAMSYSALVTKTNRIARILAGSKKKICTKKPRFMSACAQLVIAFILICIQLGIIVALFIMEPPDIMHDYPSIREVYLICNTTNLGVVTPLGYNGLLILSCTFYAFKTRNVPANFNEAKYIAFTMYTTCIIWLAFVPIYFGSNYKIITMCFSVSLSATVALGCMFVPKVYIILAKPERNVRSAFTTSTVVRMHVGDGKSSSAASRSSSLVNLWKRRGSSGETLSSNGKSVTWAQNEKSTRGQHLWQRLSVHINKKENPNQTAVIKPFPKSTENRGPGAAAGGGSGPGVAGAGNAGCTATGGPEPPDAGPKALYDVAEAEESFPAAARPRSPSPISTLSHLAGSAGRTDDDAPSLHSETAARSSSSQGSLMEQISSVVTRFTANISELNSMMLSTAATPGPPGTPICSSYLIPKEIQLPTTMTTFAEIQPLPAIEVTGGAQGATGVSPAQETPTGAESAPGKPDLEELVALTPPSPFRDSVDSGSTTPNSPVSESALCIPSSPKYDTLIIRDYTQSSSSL
The experiment in a line: mGluR5 assay on HEK-expressing rat mGluR5 (fluorescent cell based Ca2+ mobilization assay). The following applies: HEK-293 cells stably expressing rat mGluR5; no co-addition of glutamate; mean of at least three independent experiments in duplicate; read-out: Ca++ Flux (mean EC50). The procedure:
Positive functional expression of HEK-293 cells stably expressing rat mGluR5 receptor was determined by measuring intracellular Ca^2+ changes using a Fluorometric Imaging Plate Reader (FLIPR, Molecular Devices, Sunnyvale, Calif.) in response to glutamate or selective known mGluR5 agonists and antagonists. Rat mGluR5RT-PCR products in HEK-293 cells were sequenced and found 100% identical to rat mGluR5Genbank reference sequence (NM_017012). HEK-293 cells expressing rmGluR5 were maintained in media containing DMEM, dialyzed Fetal Bovine Serum (10%), Glutamax™ (2 mM), Penicillin (100 units/ml), Streptomycin (100 μg/ml), Geneticin (100 μg/ml) and Hygromycin-B (40 μg/ml) at 37° C./5% CO2.
After one day of incubation, cells were washed with assay buffer containing: 142 mM NaCl, 6 mM KCl, 1 mM […], 1 mM CaCl2, 20 mM HEPES, 1 g/L glucose, 0.125 mM sulfinpyrazone, pH 7.4. After 60 min of loading with 4 uM Fluo-4 (TefLabs, Austin, Tex.), the cells were washed three times with 50 μl of PBS Buffer and resuspended in 45 μl of assay Buffer. The plates were then transferred to a Fluorometric Imaging Plate Reader (FLIPR, Molecular Devices, Sunnyvale, Calif.) for the assessment of intracellular calcium flux. After monitoring the baseline fluorescence for 10 seconds, increasing concentrations of representative compound (from 0.01 to 60 μM) of the present invention diluted in Assay Buffer (15 μl of 4× dilutions) was added to the cell. The final DMSO concentration in the assay was 0.3%. In each experiment, fluorescence was then monitored as a function of time for 3 minutes and the data analyzed using Microsoft Excel and GraphPad Prism. Each data point was also measured two times.
Under these experimental conditions, this HEK-rat mGluR5 cell line is able to directly detect positive allosteric modulators without the need of co-addition of glutamate or mGluR5 agonist.
The concentration-response curves of representative compounds of the present invention were generated using the Prism GraphPad software (Graph Pad Inc, San Diego, USA). The curves were fitted to a four-parameter logistic equation:
(Y=Bottom+(Top−Bottom)/(1+10̂((Log EC50−X)*Hill Slope)
allowing determination of EC50 values.
The Table 5 below represents the mean EC50 obtained from at least three independent experiments of selected molecules performed in duplicate.

A word on the IC50: it is the point on the concentration scale where inhibition reaches its midpoint. In general, EC50 refers to the concentration at which the effect is half-maximal. Regarding `O=C(c1ccc(F)cc1)N1CCC[C@H](c2nc(Cc3ccc(F)cc3)no2)C1` [Example 1, {(S)-3-[3-(4-Fluoro-benzyl)-[1,2,4]oxadiazol-5-yl]-piperidin-1-yl}-(4-fluoro-phenyl)-methanone], on mGluR5, the IC50 is less than 30 µM. Also, at rat mGluR5, the EC50 was less than 1 µM.
